Results from patent US8313779B2, “Evaluation method and screening method for substance having action of activating/suppressing innate immunity, agent and food product for activating/suppressing innate immune mechanism and method for producing the same” (Genome Pharmaceuticals Institute Co., Ltd., priority 2007, dated 2012).

Test system: isolated head muscle specimen of the silkworm larva
Experiment: Inhibition of induced muscular contraction in the isolated head muscle specimen of the silkworm larva (pre-injection of test substance, then inducer)
Format: in vivo, silkworm (Bombyx mori) larva
Protocol: The experiment using kainic acid (0.2 mM) in place of peptideglycan was carried out as a control experiment. It has been known that kainic acid is an agonist of a glutamic acid receptor and induces the muscular contraction by strongly binding to a glutamine receptor to excessively stimulate the nerve. It has been already known that the muscular contraction induced by kainic acid is inhibited by L-glutamic acid.
The experiment using kainic acid (0.2 mM) in place of BmPP was carried out as the control experiment.
As the control experiment, 0.9% NaCl in place of the rabbit antiserum against BmPP was injected.

CC(=O)N[C@@H](CS)C(=O)O [N-acetylcysteine]
inhibition of muscular contraction induced by BmPP (N-acetylcysteine 200 mM, 0.05 mL pre-injected, 0.4 μg/mL BmPP (FIG. 6)): no inhibitory effect | inhibition of muscular contraction induced by kainic acid (N-acetylcysteine 200 mM, 0.05 mL pre-injected, 0.2 mM kainic acid (FIG. 6)): no inhibitory effect | inhibition of muscular contraction induced by air (N-acetylcysteine 200 mM, 0.05 mL pre-injected, 0.05 mL of air (FIG. 6)): inhibited | inhibition of muscular contraction induced by H2O2 (N-acetylcysteine 200 mM, 0.05 mL pre-injected, 125 mM H2O2 (FIG. 6)): inhibited | inhibition of muscular contraction induced by peptideglycan (N-acetylcysteine 200 mM, 0.05 mL pre-injected, peptideglycan = autoclaved Staphylococcus aureus (FIG. 6)): inhibited

N[C@@H](CCC(=O)O)C(=O)O [L-glutamic acid]
inhibition of muscular contraction induced by BmPP (L-glutamic acid 40 mM, 0.05 mL pre-injected, then BmPP (FIG. 4)): not inhibited | inhibition of muscular contraction induced by kainic acid (L-glutamic acid 40 mM, 0.05 mL pre-injected, kainic acid 0.2 mM (FIG. 2)): inhibited | inhibition of muscular contraction induced by peptideglycan (L-glutamic acid 40 mM, 0.05 mL pre-injected, peptideglycan 0.5 mg/mL or 5 mg/mL, 0.05 mL (FIG. 2)): not inhibited | inhibition of muscular contraction induced by β-glucan (L-glutamic acid pre-injected): not inhibited
